Test results published in patent publication US11672799B2, “1,4-disubstituted pyridazine quinolne analogs there of and methods for treating SMN-deficiency-related conditions” (Novartis AG, priority 2013, dated 2023).

test system: SMN protein; test: cellular SMN ELISA (SMN protein elevation) in myoblast cell line from SMNdelta7 mouse model; assay type: cell-based; conditions: comparison of unsubstituted, ortho-hydroxy and ortho-alkoxy pyridazines; as in Biological Example 1
In short: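 SMNdelta7 mouse myoblasts were treated with compounds for 24 h (20 nM–10 uM or 100 pM–10 uM), lysed in modified RIPA buffer, and SMN quantified by sandwich ELISA with HRP/TMB read at 450 nm. Values are fold activation over DMSO control and EC50.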

SMILES | SMN ELISA EC50
CCOc1cc2nccnc2cc1-c1ccc(N(C)C2CC(C)(C)NC(C)(C)C2)nn1 [drawing 139 R = OEt, 6-(7-Ethoxyquinoxalin-6-yl)-N-methyl-N-(2,2,6,6-tetramethylpiperidin-4-yl)pyridazin-3-amine] | Inactive

test system: SMN2 Full reporter; test: SMN2 Full reporter gene assay (luciferase) in NSC34 stable line; assay type: cell-based; conditions: NSC-34, Biological Example 2, 24 hours, BrightGlo, read-out: SMN Activity (EC50)
Description: SMN2 Full Reporter Construct:
pSMN2 Splicing Luciferase reporter was constructed according to Zhang et al., (An in vivo reporter system for measuring increased inclusion of exon 7 in SMN2 mRNA: potential therapy of SMA. Gene Ther. 2001 October; 8(20):1532-8) via overlapping PCR. The final PCR fragment containing Exon6-Intron6-Exon7 (with a C insertion before 49T)-Intron7-Exon8-Luciferase was inserted to BamHI and NotI site of pCAG-IRESblast expression vector (Chen et al., Establishment and Maintenance of Genomic Methylation Patterns in Mouse Embryonic Stem Cells by Dnmt3a and Dnmt3b. Mol Cell Biol. 2003 August; 23(16):5594-605).
Human SMN2 exon1-exon6 cDNA were amplified by PCR (Forward primer: […]; reverse primer: […]), and Exon6-Intron6 (Forward primer: […]; reverse primer: […]) were fused by overlap PCR to create Exon1-Intron6 fragment, and was inserted into pSMN2 splicing Luciferase reporter via BamHI and HindIII sites to create pSMN2 exon1-6 splicing reporter. SMN2 promoter 5.1 kb fragment was amplified from human genomic DNA by PCR (Forward primer: […]; reverse primer: […]), and inserted between MluI site and BamHI site (Blunted using DNA blunting kit, Takara, Cat #6025) of pSMN2 exon1-6 splicing reporter to replace chicken β-actin promoter and the human cytomegalovirus immediate early enhancer, to finalize the pSMN2-Full-reporter.
SMN2 Full Reporter Stable Clone in NSC34 Cells:
pSMN2-Full reporter was stably transfected into NSC34 cells using Lipofectamine 2000, which were subsequently selected in blasticidin-containing medium for two weeks. Blasticidin-resistant colonies were screened by Luciferase signal and response to SAHA as well as by RT-PCR for alternative splicing of Exon7.
NSC34 SMN2 Full reporter stable line was cultured in DMEM (Invitrogen, Cat:11965)+10% FBS+7 μg/ml Blasticidin. Cells in culture media without Blasticidin were seeded into a 384-well plate at a density of 6000 cells/well and treated with compounds for 24 hours. Luciferase signal was assessed by BrightGlo assay. Eequal volume of BrightGlo reagent (Promega, Cat #E2620) was added to the cells and incubated for 10 minutes at room temperature. Luminescent signal was read in either BioTek or Envision plate reader.
Reporter gene assay conditions: compound concentration range 3 nM-10 uM.

SMILES | EC50
Cc1cc2cc(O)c(-c3ccc(N(C)C4CC(C)(C)NC(C)(C)C4)nn3)cc2c(C)n1 [Example 29-3, 1,3-dimethyl-7-(6-(methyl(2,2,6,6-tetramethylpiperidin-4-yl)amino)pyridazin-3-yl)isoquinolin-6-ol] | 40 nM
Cc1cc2cc(-c3ccc(N(C)C4CC(C)(C)NC(C)(C)C4)nn3)c(O)cc2c(C#N)n1 [Example 30-1, 7-hydroxy-3-methyl-6-(6-(methyl(2,2,6,6-tetramethylpiperidin-4-yl)amino)pyridazin-3-yl)isoquinoline-1-carbonitrile] | 30 nM
CN(c1ccc(-c2cc3c(N)nccc3cc2O)nn1)C1CC(C)(C)NC(C)(C)C1 [Example 31-1, 1-amino-7-(6-(methyl(2,2,6,6-tetramethylpiperidin-4-yl)amino)pyridazin-3-yl)isoquinolin-6-ol] | 25 nM
CN(c1ccc(-c2cc3c(=O)n(C)c(=O)n(C)c3cc2O)nn1)C1CC(C)(C)NC(C)(C)C1 [Example 32-1, 7-hydroxy-1,3-dimethyl-6-(6-(methyl(2,2,6,6-tetramethylpiperidin-4-yl)amino)pyridazin-3-yl)quinazoline-2,4(1H,3H)-dione] | 133 nM
CN(c1ccc(-c2cc3[nH]c(=O)oc3cc2O)nn1)C1CC(C)(C)NC(C)(C)C1 [Example 33-1, 6-hydroxy-5-(6-(methyl(2,2,6,6-tetramethylpiperidin-4-yl)amino)pyridazin-3-yl)benzo[d]oxazol-2(3H)-one] | 3000 nM
CN(c1ccc(-c2cc3cn(C)nc3cc2O)nn1)C1CC(C)(C)NC(C)(C)C1 [Example 34-1, 2-methyl-5-(6-(methyl(2,2,6,6-tetramethylpiperidin-4-yl)amino)pyridazin-3-yl)-2H-indazol-6-ol] | 150 nM
CN(c1ccc(-c2cc3cnn(C)c3cc2O)nn1)C1CC(C)(C)NC(C)(C)C1 [Example 34-2, 1-methyl-5-(6-(methyl(2,2,6,6-tetramethylpiperidin-4-yl)amino)pyridazin-3-yl)-1H-indazol-6-ol] | 220 nM
CCn1ccc2cc(O)c(-c3ccc(OC4CC(C)(C)NC(C)(C)C4)nn3)cc2c1=O [Example 35-2, 2-ethyl-6-hydroxy-7-(6-((2,2,6,6-tetramethylpiperidin-4-yl)oxy)pyridazin-3-yl)isoquinolin-1(2H)-one] | 363 nM
CN(c1ccc(-c2cc3cnc(C4CC4)cc3cc2O)nn1)C1CC(C)(C)NC(C)(C)C1 [Example 36-3, 3-cyclopropyl-7-(6-(methyl(2,2,6,6-tetramethyl-piperidin-4-yl)amino)pyridazin-3-yl)isoquinolin-6-ol] | 30 nM
CC(C)c1cc2cc(O)c(-c3ccc(N(C)C4CC(C)(C)NC(C)(C)C4)nn3)cc2cn1 [Example 36-4, 3-isopropyl-7-(6-(methyl(2,2,6,6-tetramethyl-piperidin-4-yl)amino)pyridazin-3-yl)isoquinolin-6-ol] | 190 nM
CCCc1cc2cc(O)c(-c3ccc(OC4CC(C)(C)NC(C)(C)C4)nn3)cc2cn1 [Example 36-5, 3-propyl-7-(6-((2,2,6,6-tetramethylpiperidin-4-yl)oxy)-pyridazin-3-yl)isoquinolin-6-ol] | 580 nM
CC(C)c1cc2cc(O)c(-c3ccc(OC4CC(C)(C)NC(C)(C)C4)nn3)cc2cn1 [Example 36-6, 3-isopropyl-7-(6-((2,2,6,6-tetramethylpiperidin-4-yl)oxy)-pyridazin-3-yl)isoquinolin-6-ol] | 640 nM
